Here are results for 14 compounds from patent publication US4291036A, “Pyrido[1,2-A]pyrimidine derivatives and method of analgesic treatment” (priority 1977, dated 1981).

Structures can show the parent of a compound that is named as a salt. Where two headings read alike, the source gives them in different places.

Series [1] in a line: Toxicity (LD50; Litchfield and Wilcoxon). The following applies: in vivo. The text has this:
Toxicity: Litchfield J. T. and Wilcoxon: J. Pharmacol. Sci 54 (1965) 888.

The nature of series [2]: Hot plate test (analgesia). The following applies: for ED50: Rattus norvegicus. Type of series: in vivo, rats. The method, then:
(§1) The analgesic effect was tested on the hot-plate and algolytic tests.
Hot plate test: Woolfe and McDonald J. Pharm. 80, 300 (1944) modified by Porszasz and Herr: Kiserletes Orvostudomany 2, 292 (1950).
Background: Hot-plate and tail-flick tests time the reaction to a heat stimulus.

Series [3] can be described thus: Analgesic potency compared with Probon, dog. Type of series: in vivo.
For series [4] the following is noted: rat, in vivo.
Series [5] in a line: Analgesic potency compared with Probon, rat. The class given is in vivo.
Series [6] in a line: Inhibition of the CNS effects of Probon. As to conditions: in vivo.
For series [7] the following is noted: dog, in vivo. An excerpt:
Beagles are much more sensitive to CNS effects than rats, Rhesus monkeys and man.

Series [8] is described as follows: Algolytic test (analgesia). Type of series: in vivo. As to conditions: for Algolytic test ED100: p.o. Here is the method:
as §1
Algolytic test: J. Knoll et. al: Animal and Clinical Pharmacological Techniques in Drug Evaluation Eds. Siegler, P. E. and Meyer J. II. Year Book Medical Pub. Chicago (1967) pages 305-321.

The conditions of series [9]: s.c.; Knoll et al. 1971; cited from earlier work.
The conditions of series [10]: s.c.; Knoll et al. 1971; cited from earlier work. The source holds these as a separate data set.
Where [11] appears, read: Table I, route not given, read-out: LD50.
[12] abbreviates: Table IV, rats, i.v., read-out: LD50 rats i.v.
[13] abbreviates: po, Table IV, rats, p.o., read-out: Hot plate test ED50 p.o.
Setting [14] is: po, Table IV, rats, p.o., read-out: LD50 rats p.o.
[15] abbreviates: sc, Table IV, rats, s.c., read-out: LD50 rats s.c.
The mark [16] stands for this setting: sc, Table IV, rats, s.c., read-out: Hot plate test ED50 s.c.
[17] abbreviates: iv, Table IV, rats, i.v., read-out: Hot plate test ED50 i.v.
The mark [18] stands for this setting: iv, Table III, i.v., read-out: LD50 i.v.
[19] abbreviates: po, Table III, p.o., read-out: LD50 p.o.
[20] abbreviates: sc, Table III, s.c., read-out: LD50 s.c.
[21] abbreviates: po, Table II, p.o., read-out: Hot plate test ED50.
[22] abbreviates: po, Table III, p.o., read-out: ED50 hot-plate p.o.
The mark [23] stands for this setting: sc, Table III, s.c., read-out: ED50 hot-plate s.c.
[24] abbreviates: iv, Table III, i.v., read-out: ED50 hot-plate i.v.

Take `Cc1nc2cccc(C)n2c(=O)c1C.Cl` [2,3,6-trimethyl-4-oxo-4H-pyrido[1,2-a]pyrimidine hydrochloride]: the results for the LD50 in series [1] (setting [11]) and in series [1] (setting [12]) were 780 µmol/kg and 175 mg/kg, respectively. Further, in series [2] (setting [13]), the ED50 (in general, the dose that gives a 50% effect, or the effect in half of the subjects) came out at 87 mg/kg.
For the compound `CCc1c(C)nc2cccc(C)n2c1=O` [2,6-dimethyl-3-ethyl-4-oxo-4H-pyrido[1,2-a]pyrimidine], the “analgesic potency compared with Probon” value in [3] and in series [5] was “more potent analgesic than Probon” each time. In addition, the CNS symptoms entry in [4] and in [7] was “failing to elicit the CNS symptoms” throughout. Besides, the “inhibition of the CNS effects of Probon” value in series [6] was “strongly inhibit the CNS effects of Probon”.
As to `CCCCc1c(C)nc2cccc(C)n2c1=O.Cl` [2,6-dimethyl-3-n-butyl-4-oxo-4H-pyrido[1,2-a]pyrimidine hydrochloride], in series [1] (setting [14]), the LD50 – broadly, the dose expected to kill half of the subjects tested – turned out to be 1100 mg/kg. Also, the ED50 in series [2] (setting [13]) worked out at 340 mg/kg.
In the case of `CCCc1c(C)nc2cccc(C)n2c1=O.Cl` [2,6-dimethyl-3-n-propyl-4-oxo-4H-pyrido[1,2-a]pyrimidine hydrochloride], the LD50 turned out to be 1000 mg/kg in [1] (setting [14]), 1200 mg/kg in series [1] (setting [15]) and 316 µmol/kg in series [1] (setting [11]). Further, the ED50 in series [2] (setting [16]) worked out at 48 mg/kg.
Regarding `CCc1c(C)nc2ccc(C)cn2c1=O` [2,7-dimethyl-3-ethyl-4-oxo-4H-pyrido[1,2-a]pyrimidine . HCl], the LD50 in series [1] (setting [14]) stood at 900 mg/kg; in series [1] (setting [15]), 800 mg/kg; in series [1] (setting [12]), 175 mg/kg. The ED50 was 75 mg/kg in [2] (setting [17]), 500 mg/kg in series [2] (setting [13]) and 150 mg/kg in series [2] (setting [16]).
`CCc1c(C)nc2c(C)cccn2c1=O.Cl` [2,9-dimethyl-3-ethyl-4-oxo-4H-pyrido[1,2-a]pyrimidine HCl]: the LD50 in [1] (setting [14]) turned out to be 820 mg/kg. Also, the ED50 in series [2] (setting [13]) worked out at 310 mg/kg.
For `CCc1c(C)nc2ccc(Cl)cn2c1=O.Cl` [2-methyl-3-ethyl-7-chloro-4-oxo-4H-pyrido[1,2-a]pyrimidine hydrochloride] the same measures were 1100 mg/kg and 98 mg/kg.
For `CCCCc1c(C)nc2ccccn2c1=O` [2-methyl-3-n-butyl-4-oxo-4H-pyrido[1,2-a]pyrimidine . HCl] the same measures were 1100 mg/kg and 251 mg/kg.
Take `CCCc1c(C)nc2ccccn2c1=O.Cl` [2-methyl-3-n-propyl-4-oxo-4H-pyrido[1,2-a]pyrimidine hydrochloride]: the median lethal dose (LD50) in [1] (setting [11]) worked out at 502 µmol/kg.
The same measure, in the same setting: the result for `CCc1nc2cccc(C)n2c(=O)c1C.Cl` [3,6-dimethyl-2-ethyl-4-oxo-4H-pyrido[1,2-a]pyrimidine hydrochloride] reads 120 µmol/kg.
Regarding `CCc1c(C)nc2cccc(C)n2c1=O.Cl` [Compound A, 2,6-dimethyl-3-ethyl-4-oxo-4H-pyrido[1,2-a]pyrimidine hydrochloride], the LD50 is 190 mg/kg in [1] (setting [18]), 690 mg/kg in [1] (setting [19]), 520 mg/kg in [1] (setting [20]) and 796 µmol/kg in series [1] (setting [11]). In addition, the ED50 in series [2] (setting [21]) was found to be 68 mg/kg; in series [2] (setting [22]) it was 68 mg/kg; in series [2] (setting [13]), 68 mg/kg; in series [2] (setting [23]), 74 mg/kg; in [2] (setting [16]), 74 mg/kg; in series [8] (sc) it was 98 mg/kg. The ED50 hot-plate p.o. in series [2] (Table III, p.o., hydrochloride) is 58 mg/kg. In addition, in [8] (Table III), the “algolytic (+5mg./kg morphine), result in words” value is “effective per se”. Moreover, the “ED50 algolytic (+5mg./kg morphine)” value in series [8] (Table III, s.c.) worked out at 8.6 mg/kg. Further, the ED100 in series [8] (po, Table II) worked out at 420 mg/kg.
Take `CCc1c(C)nc2ccccn2c1=O` [Compound B, 2-methyl-3-ethyl-4-oxo-4H-pyrido[1,2-a]pyrimidine.HCl]: the LD50 stood at 280 mg/kg in [1] (setting [18]), 1000 mg/kg in series [1] (setting [19]), 620 mg/kg in [1] (setting [20]) and 1070 µmol/kg in series [1] (setting [11]). The ED50 in [2] (setting [24]) was 100 mg/kg; in [2] (setting [17]), 100 mg/kg; in series [2] (setting [21]), 330 mg/kg; in [2] (setting [22]), 300 mg/kg; in series [2] (setting [13]), 300 mg/kg; in series [2] (setting [23]) it was 180 mg/kg. Moreover, the ED50 in series [2] (setting [16]) worked out at 180 mg/kg. The “Algolytic test ED100” value in [8] (Table II) is given as “cannot be achieved”. The “ED50 algolytic (+5mg./kg morphine)” value in series [8] (Table III, i.v.) came out at 2.75 mg/kg.
In the case of `CCc1c(C)nc2cc(C)cc(C)n2c1=O` [Compound C, 2,6,8-trimethyl-3-ethyl-4-oxo-4H-pyrido[1,2-a]pyrimidine.HCl], the LD50 in [1] (setting [18]) was 120 mg/kg; in series [1] (setting [19]) it was 1500 mg/kg; in [1] (setting [20]) it was 820 mg/kg. The ED50 is 49 mg/kg in [2] (setting [24]); 49 mg/kg in series [2] (setting [17]); 580 mg/kg in series [2] (setting [21]); 580 mg/kg in series [2] (setting [22]); 580 mg/kg in series [2] (setting [13]); 120 mg/kg in [2] (setting [23]). The ED50 in [2] (setting [16]) worked out at 120 mg/kg. In series [8] (Table II), the “Algolytic test ED100” value is reported as “cannot be achieved”.
For the compound `CCOC(=O)c1c[n+](C)c2n(c1=O)C(C)CCC2` (stereo not shown) [Probon, 1,6-dimethyl-3-ethoxycarbonyl-4-oxo-4H-6,7,8,9-tetrahydro-pyrido[1,2-a]pyrimidinium-methosulfate, reference compound], in series [9], the “dose eliciting characteristic desynchronization of the EEG” value was at least 250 mg/kg. For the same compound, the LD50 amounted to 220 mg/kg in [1] (iv, read-out: LD50 rats i.v.); 1600 mg/kg in [1] (po, read-out: LD50 rats p.o.); 607 µmol/kg in series [1] (read-out: LD50). Further, the results for the median effective dose (ED50) in series [2] (setting [17]) and in series [2] (setting [13]) were 50 mg/kg and 220 mg/kg, respectively. The “dose causing death of the animal” value in series [7] (po) came out at 300 mg/kg. Besides, the “oral dose at which disturbances of coordination and behavior, ataxia appear” value in [7] (po) is reported as “above 100 mg./kg. body weight”. For the same compound, the “oral dose level at which CNS symptoms are very marked” value in series [7] (po) is 150 to 200 mg/kg. Besides, in series [10], the “dose causing inhibition of the conditioned reflex” value is at least 250 mg/kg.
